Source: patent US20160184340A1, “THE USE OF SPINOSYNS AND SPINOSYN COMPOSITIONS AS LOCAL ANESTHETICS AND AS ANTIARRHYTHMIC AGENTS” (Entarco SA, priority 2010, published 2016)
“And” between values parts separate entries of the source, which are not always exact repeats. Identical values can stand only once. Counter-ions that a name gives are not always drawn. Like-named read-outs stand apart in the source and are kept apart here.

Tests used:
male Sprague-Dawley rats [1] = experiment: Pain response testing, foot pinch test (Example 1, comparison with Lidocaine); format: in vivo; settings: for Foot Pinch Test average per animal, round 1: group average (1 = no anesthetic effect, 0 = effect); for Foot Pinch Test average per animal, round 1 / Foot Pinch Test Results Round 1: 45 minutes post dose; for Foot Pinch Test average per animal, round 1 / Foot Pinch Test average per animal, round 2 / Foot Pinch Test average per animal, round 3 / Foot Pinch Test average per animal, round 4 / Foot Pinch Test average per animal, round 5 / Foot Pinch Test average per animal, round 6: SQ 1.33 mL/kg (spinosad 12 mg/kg; Lidocaine 26.6 mg/kg); for Foot Pinch Test average per animal, round 2 / Foot Pinch Test average per animal, round 3 / Foot Pinch Test average per animal, round 4 / Foot Pinch Test average per animal, round 5 / Foot Pinch Test average per animal, round 6: group average; for Foot Pinch Test average per animal, round 2 / Foot Pinch Test Results Round 2: 70 minutes post dose; for Foot Pinch Test average per animal, round 3 / Foot Pinch Test Results Round 3: 1.5 hour post dose; for Foot Pinch Test average per animal, round 4 / Foot Pinch Test Results Round 4: 2 hours post dose; for Foot Pinch Test average per animal, round 5 / Foot Pinch Test Results Round 5: 2.5 hours post dose; for Foot Pinch Test average per animal, round 6 / Foot Pinch Test Results Round 6: 4 hours post dose; for Foot Pinch Test Results Round 1 / Foot Pinch Test Results Round 2 / Foot Pinch Test Results Round 3 / Foot Pinch Test Results Round 4 / Foot Pinch Test Results Round 5 / Foot Pinch Test Results Round 6: individual animal; for Foot Pinch Test Results Round 1: single SQ 1.33 mL/kg into left hind foot (spinosad 12 mg/kg; Lidocaine 2% solution, 26.6 mg/kg); for Foot Pinch Test Results Round 2 / Foot Pinch Test Results Round 3 / Foot Pinch Test Results Round 4 / Foot Pinch Test Results Round 5 / Foot Pinch Test Results Round 6: single SQ 1.33 mL/kg (spinosad 12 mg/kg; Lidocaine 26.6 mg/kg)
Protocol: Positive control: Lidocaine (Manufacturer: VetTek), as a Lidocaine Hydrochloride (2% solution or approx. 74 mM)
Assay: Pain response testing-foot pinch
Animals used: male Sprague-Dawley rats
Experimental set-up. The test article was administered as follows:
Approximately 1.33 mL/kg spinosad solution was administered once, subcutaneously at 12 mg/kg (9 mg/mL, 1.33 mL/kg) into the left hind foot of each rat in the treatment group (Group 3), positive control group (Group 2, Lidocaine, 1.33 mL/kg), and control vehicle group (Group 1, DMSO, 1.33 mL/kg).
Beginning approximately 45 minutes post-dose all animals were subjected to pain response testing, foot pinch test. The test was conducted on each rat, in order, and then repeated on each, 5 more times (6 rounds of testing) through 4 hours post-dose. The foot pinch test measured the rodent's tolerance of pressure on their foot. The rat was removed from its cage and the treated foot was pinched. Whether or not the rodent's foot responded to the pinch was documented. The treatment group averages were compared to positive and negative control group averages (Table 3 and FIG. 1).
Six total rounds of foot pinch-pain response testing were conducted at approximately 45, 70, 90, 120, 150, and 240 minutes post-dose. Time of dosing and pain testing results were recorded for each animal.

male Sprague-Dawley rats [2] = experiment: Foot pinch test, duration of action and reversible effects (Example 2); format: in vivo; settings: for Foot Pinch Test average per animal, round 1 / Foot Pinch Test average per animal, round 2 / Foot Pinch Test average per animal, round 3 / Foot Pinch Test average per animal, round 4 / Foot Pinch Test average per animal, round 5: group average; for Foot Pinch Test average per animal, round 1 / Foot Pinch Test Results Round 1: 1 hour post dose; for Foot Pinch Test average per animal, round 2 / Foot Pinch Test Results Round 2: 4 hours post dose; for Foot Pinch Test average per animal, round 3 / Foot Pinch Test Results Round 3: 6 hours post dose; for Foot Pinch Test average per animal, round 4 / Foot Pinch Test Results Round 4: 8 hours post dose; for Foot Pinch Test average per animal, round 5 / Foot Pinch Test Results Round 5: 24 hours post dose; for Foot Pinch Test Results Round 2 / Foot Pinch Test Results Round 3 / Foot Pinch Test Results Round 4 / Foot Pinch Test Results Round 5 / Foot Pinch Test Results Round 1: individual animal
Protocol: This test was conducted to establish spinosad's reversible local anesthetic effects and confirm the prolonged effect. The same assay as in example 1 was used.
Test article: spinosad in DMSO 9 mg/ml, administered in two doses; high dose 9 mg/kg and low dose 4.5 mg/kg.
The treatment group averages were compared to positive and negative control group averages (Table 6 and FIG. 2).

[3] = no value or species printed; cited from earlier work
[4] = target: cloned hERG potassium channels (Homo sapiens, UniProt Q12809)
Sequence of cloned hERG potassium channels (Q12809 whole entry): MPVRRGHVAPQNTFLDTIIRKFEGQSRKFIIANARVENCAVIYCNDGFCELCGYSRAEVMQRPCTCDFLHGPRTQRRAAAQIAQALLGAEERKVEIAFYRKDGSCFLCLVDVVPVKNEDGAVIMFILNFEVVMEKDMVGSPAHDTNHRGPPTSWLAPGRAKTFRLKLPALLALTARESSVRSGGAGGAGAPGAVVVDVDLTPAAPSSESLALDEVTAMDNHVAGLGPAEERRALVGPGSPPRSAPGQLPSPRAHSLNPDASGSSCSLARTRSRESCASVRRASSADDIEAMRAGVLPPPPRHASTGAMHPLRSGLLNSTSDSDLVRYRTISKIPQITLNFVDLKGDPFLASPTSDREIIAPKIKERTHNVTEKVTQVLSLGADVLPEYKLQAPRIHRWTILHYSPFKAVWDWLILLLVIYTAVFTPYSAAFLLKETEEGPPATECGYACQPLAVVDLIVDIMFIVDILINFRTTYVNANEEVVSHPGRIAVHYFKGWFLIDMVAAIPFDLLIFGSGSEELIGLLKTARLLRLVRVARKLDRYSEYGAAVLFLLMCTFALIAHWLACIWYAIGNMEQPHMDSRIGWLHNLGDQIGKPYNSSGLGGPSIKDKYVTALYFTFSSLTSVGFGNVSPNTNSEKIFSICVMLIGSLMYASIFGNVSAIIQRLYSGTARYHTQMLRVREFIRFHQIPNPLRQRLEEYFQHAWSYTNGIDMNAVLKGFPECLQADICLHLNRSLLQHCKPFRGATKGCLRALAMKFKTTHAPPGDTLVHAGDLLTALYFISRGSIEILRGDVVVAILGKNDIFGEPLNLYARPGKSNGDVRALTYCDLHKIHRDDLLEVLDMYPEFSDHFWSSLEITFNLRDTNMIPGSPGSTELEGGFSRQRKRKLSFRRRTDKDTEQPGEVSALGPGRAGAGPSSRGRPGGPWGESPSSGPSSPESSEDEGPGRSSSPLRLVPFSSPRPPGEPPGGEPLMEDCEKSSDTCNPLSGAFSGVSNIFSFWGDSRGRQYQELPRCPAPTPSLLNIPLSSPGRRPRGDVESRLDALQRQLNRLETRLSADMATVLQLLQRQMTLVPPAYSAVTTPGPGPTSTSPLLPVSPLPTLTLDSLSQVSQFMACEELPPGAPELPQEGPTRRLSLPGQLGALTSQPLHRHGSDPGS
Protocol: Rational for Ion channel selection: Inhibition of hERG (IKr) channels closely predicts the cardiac action potential prolongation. […] This stable expressed hERG cell line is widely used for hERG testing. The percentage inhibition of spinosad on human-ERG currents were evaluated from the gold standard manual patch clamp studies.
Test sample: spinosad (Supplier:Sigma-Aldrich/Fluka), in DMSO 9 mg/ml (0.8% w/w or approx. 12 mM)
Positive control: Terfenadine (Supplier: Sigma-Aldrich), in DMSO at a concentration of 1 mM.
All the final solutions contained no more than 0.3% DMSO.
Assay: Electrophysiology recording: Micropipette was pulled from borosilicate glass with the pipette tip resistance between 3-5 MΩ. For each experiment, a single dish of cells is removed from the incubator, washed twice with room temperature ECS and then placed on the microscope stage. A commercial patch clamp amplifier was used for the whole cell recordings.
Voltage protocol and current recording: The tail currents were evoked at room temperature once every 30 s by a 3 s −50 mV repolarizing pulse following a 2 s+50 mV depolarizing pulse with a hold voltage of −80 mV. A 50 ms depolarized pulse to −50 mV at the beginning of the voltage protocol served as a baseline for calculating the amplitude of the peak tail current. Only stable cells with recording parameters above threshold were allowed to enter the drug application procedure. The hERG currents were allowed to stabilize over a 3 minutes period in the presence of a vehicle alone prior to the application of spinosad. The cells were kept in the test solution until the peak tail current was stable (<5% change) for about 5 sweeps or for a maximum of 6 min, whichever came first.
Acceptance criteria for measurements: 1. Whole-cell membrane resistance (Rm) was greater than 1000 MΩ throughout the experiment. 2. Initial current was greater than 300 pA. 3. Series resistance value following establishment of whole-cell mode was less than 12 MΩ. 4. The leak current that the cell began with or developed over time was less than 10% of the ionic current magnitude (up to a maximum of 80 pA).

CCN(CC)CC(=O)Nc1c(C)cccc1C [Lidocaine, Lidocaine Hydrochloride]
Time by which localized anesthetic effect resolved (male Sprague-Dawley rats [1]; Lidocaine group, 1.33 mL/kg SQ, post-dose): ~70 min
Foot Pinch Test average per animal, round 1 (male Sprague-Dawley rats [1]): 0.00
Foot Pinch Test average per animal, round 2 (male Sprague-Dawley rats [1]): 0.67
Foot Pinch Test average per animal, round 3 (male Sprague-Dawley rats [1]): 1.00
Foot Pinch Test average per animal, round 4 (male Sprague-Dawley rats [1]): 1.00
Foot Pinch Test average per animal, round 5 (male Sprague-Dawley rats [1]): 1.00
Foot Pinch Test average per animal, round 6 (male Sprague-Dawley rats [1]): 1.00
Foot Pinch Test Results Round 1 (male Sprague-Dawley rats [1]): 0.00
Foot Pinch Test Results Round 2 (male Sprague-Dawley rats [1]; Hydrochloride): 1.00 (4×) and 0.00 (2×)
Foot Pinch Test Results Round 3 (male Sprague-Dawley rats [1]): 1.00
Foot Pinch Test Results Round 4 (male Sprague-Dawley rats [1]): 1.00
Foot Pinch Test Results Round 5 (male Sprague-Dawley rats [1]): 1.00
Foot Pinch Test Results Round 6 (male Sprague-Dawley rats [1]): 1.00

spinosad
Foot Pinch Test average per animal, round 1 (male Sprague-Dawley rats [2]; 4.5 mg/kg SQ): 0.50
Foot Pinch Test average per animal, round 2 (male Sprague-Dawley rats [2]; 4.5 mg/kg SQ): 0.83
Foot Pinch Test average per animal, round 3 (male Sprague-Dawley rats [2]; 4.5 mg/kg SQ): 1.00
Foot Pinch Test average per animal, round 4 (male Sprague-Dawley rats [2]; 4.5 mg/kg SQ): 1.00
Foot Pinch Test average per animal, round 5 (male Sprague-Dawley rats [2]; 4.5 mg/kg SQ): 1.00
Foot Pinch Test average per animal, round 1 (male Sprague-Dawley rats [2]; 9.0 mg/kg SQ): 0.00
Foot Pinch Test average per animal, round 2 (male Sprague-Dawley rats [2]; 9.0 mg/kg SQ): 0.17
Foot Pinch Test average per animal, round 3 (male Sprague-Dawley rats [2]; 9.0 mg/kg SQ): 0.50
Foot Pinch Test average per animal, round 4 (male Sprague-Dawley rats [2]; 9.0 mg/kg SQ): 0.50
Foot Pinch Test average per animal, round 5 (male Sprague-Dawley rats [2]; 9.0 mg/kg SQ): 1.00
Foot Pinch Test Results Round 2 (male Sprague-Dawley rats [2]; 4.5 mg/kg SQ, 4.5 mg/kg): 1.00 (5×) and 0.00
Foot Pinch Test Results Round 3 (male Sprague-Dawley rats [2]; 4.5 mg/kg SQ): 1.00
Foot Pinch Test Results Round 4 (male Sprague-Dawley rats [2]; 4.5 mg/kg SQ): 1.00
Foot Pinch Test Results Round 5 (male Sprague-Dawley rats [2]; 4.5 mg/kg SQ): 1.00
Foot Pinch Test Results Round 2 (male Sprague-Dawley rats [2]; 9.0 mg/kg SQ, 9 mg/kg): 0.00 (5×) and 1.00
Foot Pinch Test Results Round 3 (male Sprague-Dawley rats [2]; 9.0 mg/kg SQ, 9 mg/kg): 0.00 (3×) and 1.00 (3×)
Foot Pinch Test Results Round 4 (male Sprague-Dawley rats [2]; 9.0 mg/kg SQ, 9 mg/kg): 0.00 (3×) and 1.00 (3×)
Foot Pinch Test Results Round 5 (male Sprague-Dawley rats [2]; 9.0 mg/kg SQ): 1.00
Foot Pinch Test Results Round 1 (male Sprague-Dawley rats [2]; spinosad high dose 9.0 mg/kg SQ foot pad): 0.00
Foot Pinch Test Results Round 1 (male Sprague-Dawley rats [2]; spinosad low dose 4.5 mg/kg SQ foot pad, 4.5 mg/kg): 1.00 (3×) and 0.00 (3×)
Duration of local anesthetic effect (male Sprague-Dawley rats [2]; single SQ dose 4.5 mg/kg): lasted during the first hour of study only
Duration of local anesthetic effect (remained unresolved) (male Sprague-Dawley rats [2]; single SQ dose 9 mg/kg): 6 to 8 h
Reversibility of local anesthetic effect (male Sprague-Dawley rats [2]; single SQ dose 9 mg/kg): fully reversible at 24 hours
Tolerability (male Sprague-Dawley rats [2]; single subcutaneous dose into the footpad at 9 mg/kg): well tolerated
Foot Pinch Test average per animal, round 1 (male Sprague-Dawley rats [1]): 0.00
Foot Pinch Test average per animal, round 2 (male Sprague-Dawley rats [1]): 0.00
Foot Pinch Test average per animal, round 3 (male Sprague-Dawley rats [1]): 0.17
Foot Pinch Test average per animal, round 4 (male Sprague-Dawley rats [1]): 0.17
Foot Pinch Test average per animal, round 5 (male Sprague-Dawley rats [1]): 0.33
Foot Pinch Test average per animal, round 6 (male Sprague-Dawley rats [1]): 0.50
Foot Pinch Test Results Round 1 (male Sprague-Dawley rats [1]): 0.00
Foot Pinch Test Results Round 2 (male Sprague-Dawley rats [1]): 0.00
Foot Pinch Test Results Round 3 (male Sprague-Dawley rats [1]): 0.00 (5×) and 1.00
Foot Pinch Test Results Round 4 (male Sprague-Dawley rats [1]): 0.00 (5×) and 1.00
Foot Pinch Test Results Round 5 (male Sprague-Dawley rats [1]): 0.00 (4×) and 1.00 (2×)
Foot Pinch Test Results Round 6 (male Sprague-Dawley rats [1]): 0.00 (3×) and 1.00 (3×)
Duration of local anesthetic effect (remained unresolved) (male Sprague-Dawley rats [1]; single SQ dose 12 mg/kg, study duration 4 hours): ≥ 4 h
Tolerability (male Sprague-Dawley rats [1]; single subcutaneous dose into the footpad at 12 mg/kg): well tolerated
LD50 relative to lidocaine [3]: much higher LD50 than lidocaine
% Block Cell #2 ([4]; 1.35 μM): 3.5%
% Block Cell #3 ([4]; 1.35 μM): 0.6%
Average Inhibition (%) of hERG currents ([4]; 1.35 μM): 7.2±8.9%
% Block Cell #1 ([4]; 1.35 μM, hERG tail current, room temperature): 17.3%
% Block Cell #1 ([4]; 4.50 μM): 26.9%
% Block Cell #2 ([4]; 4.50 μM): 19.2%
% Block Cell #3 ([4]; 4.50 μM): 19.4%
Average Inhibition (%) of hERG currents ([4]; 4.50 μM): 21.8±4.4%
% Block Cell #1 ([4]; 13.50 μM): 30.3%
% Block Cell #2 ([4]; 13.50 μM): 48.4%
% Block Cell #3 ([4]; 13.50 μM): 47.7%
% Block Cell #4 ([4]; 13.50 μM): 40.2%
Average Inhibition (%) of hERG currents ([4]; 13.50 μM): 41.7±8.4%
% Block Cell #2 ([4]; 36.00 μM): 77.5%
% Block Cell #3 ([4]; 36.00 μM): 84.1%
% Block Cell #4 ([4]; 36.00 μM): 73.2%
Average Inhibition (%) of hERG currents ([4]; 36.00 μM): 78.3±5.5%
Reversibility of blocking on hERG current ([4]; saline wash): reversible after one minute of saline wash
Concentration dependence of hERG current inhibition ([4]; whole cell recordings, HEK293-hERG stable cell line): inhibited hERG currents in a concentration-dependent manner
